Assay results: patent publication US9758472B2, “Non-lactone carbocyclic and heterocyclic antagonists and agonists of bacterial quorum sensing” (WISCONSIN ALUMNI RESEARCH FOUNDATION, priority 2009, dated 2017)
Read-outs that look alike come from different tables or passages of the source.

What was measured:
LasR [1] = biological target: T1, LasR (Pseudomonas aeruginosa, UniProt P25084); experiment: LasR antagonism assay, E. coli DH5α (pJN105L+pSC11) β-galactosidase reporter strain; format: cell-based, P. aeruginosa
T1 construct: expressed in transfected cells; host or cells: Escherichia coli DH5α (pJN105L+pSC11)
Procedure: (§1) FIG. 5B is a bar graph showing the results of […] assay for initial heterocyclic and carbocyclic library (Scheme 1) shown as a percent of the positive control. Antagonism positive control (Pos)=activity of the reporter strain in the absence of synthetic ligand at the EC50 value for the strain. […] Negative control (Neg)=bacteria in the absence of natural and synthetic ligand. Error bars=standard deviation of the mean of triplicate samples.
(§2) The initial library was tested for LasR agonistic and antagonistic activity in two strains: Escherichia coli DH5α (pJN105L+pSC11) [Lee, J. H.; Lequette, Y.; Greenberg, E. P., Activity of purified QscR, a Pseudomonas aeruginosa orphan quorum-sensing transcription factor. Mol. Microbiol. 2006, 59 (2), 602-609] and P. aeruginosa PA01 MW1 (pUM15) [Muh, U.; Schuster, M.; Heim, R.; Singh, A.; Olson, E.; Greenberg, E. P., Novel Pseudomonas aeruginosa Quorum-Sensing Inhibitors Identified in an Ultra-High-Throughput Screen. Antimicrob. Agents Chemother. 2006, 50, 3674-3679] (FIGS. 5A and 5B). Both strains allow for synthetic autoinducer mimic evaluation and contain a reporter gene that allows for a quantitative readout of QS activity. DH5α (pJN105L+pSC11) is a heterologous β-galactosidase E. coli reporter strain containing a plasmid for the P. aeruginosa LasR gene. The PA01 MW1 (pUM15) strain uses the natural P. aeruginosa background containing a LasI deletion and the gene for yellow fluorescent protein (YFP) under the control of the LasI promoter to evaluate the LasI/R activity. Since the PA01 MW1 (pUM15) strain evaluates LasR in the natural P. aeruginosa background, in contrast to the heterologous E. coli strain, an improved idea of the interplay between the isolated LasI/R system and the combination of LasI/R with other QS subsystems such as QscR can be determined. Furthermore, additional nuances of the natural system such as compound permeability are incorporated in assays using the PA01 MW1 (pUM15) strain.

LasR [2] = biological target: T1, LasR; experiment: LasR antagonism assay, P. aeruginosa PA01 MW1 (pUM15) YFP reporter strain; format: cell-based; conditions: initial library (FIG. 4); P. aeruginosa PA01 MW1; negative values indicate agonist properties
Procedure: as §1, §2

LuxR [3] = biological target: T2, LuxR (Aliivibrio fischeri, UniProt P35327); conditions: initial library (FIG. 4); V. fischeri ESI 114 (Δ-LuxI)
Procedure: (§3) The initial library was also tested in Vibrio fischeri ESI 114 (Δ-LuxI) [Lupp, C.; Urbanowski, M.; Greenberg, E. P.; Ruby, E. G., The Vibrio fischeri quorum-sensing systems ain and lux sequentially induce luminescence gene expression and are important for persistence in the squid host. Mol. Microbiol. 2003, 50 (1), 319-331] and Agrobacterium tumefaciens WCF (pCF372). […] J. Bacteriol. 1998, 180 (20), 5398-5405.] […] [Geske, G. D.; O'Neill, J. C.; Miller, D. M.; Mattmann, M. E.; Blackwell, H. E., Modulation of Bacterial Quorum Sensing: Systematic Evaluation of N-Acylated Homoserine Lactones in Multiple Species and New Insights into Their Mechanism of Action. J. Am. Chem. Soc. 2007, 129, 13613-13625.]

LuxR [4] = biological target: T2, LuxR; experiment: cell-based; format: cell-based, Vibrio fischeri; parameters: The initial library was also tested in Vibrio fischeri ESI 114 (Δ-LuxI); endogenous in cells; host or cells: Vibrio fischeri ESI 114 (Δ-LuxI); conditions: for IC50: dose response
Procedure: as §3

LasR [5] = biological target: T1, LasR; experiment: LasR agonism assay, E. coli DH5α (pJN105L+pSC11) β-galactosidase reporter strain; format: cell-based, P. aeruginosa; conditions: for Act %: thiolactone libraries, E. coli, synthetic ligands tested at 10 μM
Procedure: (§4) The black bars are DH5α (pJN105L+pSC11) and the grey bars are PA01 MW1 (pUM15). Agonism positive control=activity of the reporter strain at full turn on for the strain. […] Negative control (Neg)=bacteria in the absence of natural and synthetic ligand. Error bars=standard deviation of the mean of triplicate samples.
as §2

LasR [6] = biological target: T1, LasR; experiment: LasR agonism assay, P. aeruginosa PA01 MW1 (pUM15) YFP reporter strain; format: cell-based; conditions: for Act %: thiolactone libraries, P. aeruginosa, synthetic ligands tested at 10 μM
Procedure: as §4, §2

[7] = Functional half-life of autoinducers: ligand pre-incubated in media, then PA01 MW1 (pUM15) agonism readout; format: cell-based, P. aeruginosa; conditions: ligand incubated in media with antibiotics at 37° C.; pseudo first order, t1/2=ln(2)/slope
Procedure: [Glansdorp, F. G.; Thomas, G. L.; Lee, J. K.; Dutton, J. M.; Salmond, G. P. C.; Welch, M.; Spring, D. R., Synthesis and stability of small molecule probes for Pseudomonas aeruginosa quorum sensing modulation. Org. Biomol. Chem. 2004, 2, 3329-3336.] […] In these cases the results were determined by NMR experiments conducted in deuterated buffers. […] Unfortunately, the use of high levels of DMSO reduces the biological relevance of the assay because large concentrations of DMSO cannot be tolerated by biological systems. Furthermore, the required concentrations of ligand are lower in a biologically based functional assay than in an NMR experiment because YFP production is much more sensitive than NMR, which requires relatively high concentrations.
In this assay, media, ligand, and antibiotics are prepared in Teflon-capped vials and allowed to incubate at 37° C. for predetermined times. P. aeruginosa cells from the strain PA01 MW1 (pUM15) were cultured overnight. These cells were then pelleted and washed with LB containing 50 mM MOPS. […] The 96 well plate was incubated for 8 hours and then analyzed for optical density and YFP fluorescence. […] Fluorescence was normalized to cell density and time points were analyzed as a percentage of the ability of the freshly prepared natural ligand to agonize the P. aeruginosa system. […]

TraR [8] = biological target: T3, TraR (Agrobacterium tumefaciens, UniProt P33905); experiment: cell-based; format: cell-based; parameters: and Agrobacterium tumefaciens WCF (pCF372); endogenous in cells; host or cells: Agrobacterium tumefaciens WCF (pCF372)
Procedure: as §3

[9] = cited from earlier work
TraR [10] = biological target: T3, TraR; conditions: dose response; A. tumefaciens WCF (pCF372)
Procedure: as §3

LasR [11] = biological target: T1, LasR; experiment: LasR antagonism assay, E. coli DH5α (pJN105L+pSC11) β-galactosidase reporter strain; format: cell-based, P. aeruginosa; conditions: thiolactone libraries, synthetic ligands tested at 10 μM

T3 sequence (P33905 whole entry): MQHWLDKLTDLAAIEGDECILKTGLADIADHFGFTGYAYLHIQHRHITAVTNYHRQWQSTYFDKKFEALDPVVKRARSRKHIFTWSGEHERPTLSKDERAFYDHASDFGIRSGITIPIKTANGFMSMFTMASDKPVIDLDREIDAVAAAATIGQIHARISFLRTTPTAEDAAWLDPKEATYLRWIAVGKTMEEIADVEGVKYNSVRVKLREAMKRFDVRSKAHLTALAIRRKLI
T2 sequence (P35327 whole entry): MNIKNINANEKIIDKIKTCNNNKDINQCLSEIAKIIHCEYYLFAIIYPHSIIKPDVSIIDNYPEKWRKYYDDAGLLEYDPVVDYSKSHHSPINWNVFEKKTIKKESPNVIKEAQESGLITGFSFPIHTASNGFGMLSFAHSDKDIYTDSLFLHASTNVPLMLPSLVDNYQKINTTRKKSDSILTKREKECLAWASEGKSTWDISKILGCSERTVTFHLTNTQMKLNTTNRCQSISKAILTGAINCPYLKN
T1 sequence (P25084 whole entry): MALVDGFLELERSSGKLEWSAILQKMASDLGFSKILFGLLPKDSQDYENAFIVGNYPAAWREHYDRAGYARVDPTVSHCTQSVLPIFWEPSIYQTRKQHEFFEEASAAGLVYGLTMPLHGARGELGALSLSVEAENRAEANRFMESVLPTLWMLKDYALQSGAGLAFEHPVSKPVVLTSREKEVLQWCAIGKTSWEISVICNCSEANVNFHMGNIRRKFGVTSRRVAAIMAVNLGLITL

**Q.** For CCCCCCCCCC(=O)CC(=O)NCc1cccc([N+](=O)[O-])c1 [Compound 13], which “Antagonist, percent inhibition compared to a positive control” value (“Antagonist, percent inhibition” below) (LasR [1]; initial library (FIG. 4), E. coli DH5α (pJN105L+pSC11), negative values indicate agonist properties) is on record?
**A.** The value was 41.0%.

**Q.** And the “Antagonist, percent inhibition” value (LasR [2])?
**A.** Its value is 16.8%.

**Q.** What about the “Agonist, percent of activation compared to the positive control” value (LuxR [3]) of the same molecule?
**A.** The value was 1.7%.

**Q.** What about the “Antagonist, percent inhibition” value (LuxR [4]; initial library (FIG. 4), V. fischeri ESI 114 (Δ-LuxI)) of the same molecule?
**A.** Its value is 43.8%.

**Q.** With CCCCCCCCCC(=O)CC(=O)N[C@H]1CCSC1=O [Compound 1E] as the molecule, how does the inhibition at 10 µM (LasR [1]; read-out: Inhib %) read?
**A.** Its inhibition at 10 µM is -61%.

**Q.** And the “LasR agonism, in words” value (LasR [5]; E. coli DH5α (pJN105L+pSC11))?
**A.** Its value is “strong agonists”.

**Q.** What about the EC50 (LasR [5]; dose response, E. coli DH5α (pJN105L+pSC11)) of the same molecule?
**A.** The EC50 was 0.092 µM.

**Q.** What about the Act % (LasR [5]) of the same molecule?
**A.** The Act % was 102%.

**Q.** And the EC50 (LasR [6]; dose response, P. aeruginosa PA01 MW1 (pUM15))?
**A.** Its EC50 is 3.2 µM.

**Q.** What about the Act % (LasR [6]) of the same molecule?
**A.** The Act % was 127%.

**Q.** What about the half-life [7] of the same molecule?
**A.** The half-life was 82.3 h.

**Q.** And the IC50 (TraR [8]; dose response, A. tumefaciens WCF (pCF372))?
**A.** Its IC50 is 1.8 µM.

**Q.** What about the inhibition at 10 µM (TraR [8]; read-out: Inhib %) of the same molecule?
**A.** The inhibition at 10 µM was 51%.

**Q.** What about the IC50 (LuxR [4]; V. fischeri ESI 114 (Δ-LuxI)) of the same molecule?
**A.** Its IC50 is 0.45 µM.

**Q.** And the inhibition at 10 µM (LuxR [4]; read-out: Inhib %)?
**A.** The inhibition at 10 µM was 91%.

**Q.** With CCCCCCCCCC(=O)CC(=O)N[C@H]1CCOC1=O [OdDHL, 3-oxo-dodecanoyal homoserine lactone] as the molecule, how does the half-life [7] read?
**A.** Its half-life is 48.2 h.

**Q.** What about the hydrolysis half-life ([9]; previous experiments, NMR in deuterated buffers, 50% solution of DMSO) of the same molecule?
**A.** Its hydrolysis half-life is “approximately two”.

**Q.** And the “racemization of the chiral center” value ([9]; previous experiments, over the course of a week)?
**A.** Its value is “less than 5%”.

**Q.** What about the half-life ([9]; previous literature, growth media at 37° C.) of the same molecule?
**A.** The half-life was “approximately two”.

**Q.** What does the source list for CCCCCC(=O)CC(=O)N[C@H]1CCSC1=O [Compound 24E]?
**A.** Act % (LasR [5]): 0%; Act % (LasR [6]): 3%; EC50 (TraR [10]): 20 µM; Inhib % (LasR [11]): −30%; Inhib % (TraR [8]; thiolactone libraries, A. tumefaciens, synthetic ligands tested at 10 μM): −89%; IC50 (LuxR [4]; V. fischeri ESI 114 (Δ-LuxI)): 0.35 µM; Inhib % (LuxR [4]; thiolactone libraries, V. fischeri, synthetic ligands tested at 10 μM): 99%
